Experimental data published in patent US9828333B2, “Compounds for the treatment of influenza” (CHRISTIAN-ALBRECHTS-UNIVERSITAT ZU KIEL, priority 2011, dated 2017).

Assays:
[1] = molecular target: neuraminidase of influenza A virus A/342/2009 (H1N1, oseltamivir resistant) (UniProt P03468); type: biochemical
[2] = tested on: influenza A virus A/342/2009 (H1N1; oseltamivir-resistant); type: cell-based

Row | Compound | 50% inhibitory concentration higher compared to zanamivir [1] [fold] | 90% inhibitory concentration, A/342/2009 [2] | 95% inhibitory concentration (values in parentheses), A/342/2009 [2]
1 | CCC(CC)O[C@@H]1C=C(C(=O)O)C[C@H](NC(C)=N)[C@H]1NC(C)=O [Compound 3] | 50 | 16.0 (22.3) μM | 16.0 (22.3) μM
2 | CCC(CC)O[C@@H]1C=C(C(=O)O)C[C@H](NC(=N)N)[C@H]1NC(C)=O [Compound 9, (3R,4R,5S)-4-acetamido-5-(N-guanidino)-3-(1-ethylpropoxy)cyclohex-1-en-1-carboxylic acid] |  | 3.0 (14.2) μM | 3.0 (14.2) μM
3 | CCOC(=O)C1=C[C@@H](OC(CC)CC)[C@H](NC(C)=O)[C@@H](N)C1 [Oseltamivir, (3R,4R,5S)-4-acetamido-5-amino-3-(1-ethylpropoxy)cyclohex-1-en-1-carboxylic acid ethyl ester, reference compound] |  | resistant | 
